Columns and labels:
BMX = biological target: T1, BMX (Homo sapiens, UniProt P51813); assay: Kinase panel profiling at 1 µmol/L (mobility shift assay, Carna); type: biochemical; details: 1 µmol/L of BTK inhibitor
T1 construct: purchased Carna Biosciences

EPHA1 = biological target: T2, EPHA1 (Homo sapiens, UniProt P21709); assay: as above; type: biochemical; details: 1 µmol/L of BTK inhibitor
T2 construct: purchased Carna Biosciences
T2 sequence (P21709 26-976): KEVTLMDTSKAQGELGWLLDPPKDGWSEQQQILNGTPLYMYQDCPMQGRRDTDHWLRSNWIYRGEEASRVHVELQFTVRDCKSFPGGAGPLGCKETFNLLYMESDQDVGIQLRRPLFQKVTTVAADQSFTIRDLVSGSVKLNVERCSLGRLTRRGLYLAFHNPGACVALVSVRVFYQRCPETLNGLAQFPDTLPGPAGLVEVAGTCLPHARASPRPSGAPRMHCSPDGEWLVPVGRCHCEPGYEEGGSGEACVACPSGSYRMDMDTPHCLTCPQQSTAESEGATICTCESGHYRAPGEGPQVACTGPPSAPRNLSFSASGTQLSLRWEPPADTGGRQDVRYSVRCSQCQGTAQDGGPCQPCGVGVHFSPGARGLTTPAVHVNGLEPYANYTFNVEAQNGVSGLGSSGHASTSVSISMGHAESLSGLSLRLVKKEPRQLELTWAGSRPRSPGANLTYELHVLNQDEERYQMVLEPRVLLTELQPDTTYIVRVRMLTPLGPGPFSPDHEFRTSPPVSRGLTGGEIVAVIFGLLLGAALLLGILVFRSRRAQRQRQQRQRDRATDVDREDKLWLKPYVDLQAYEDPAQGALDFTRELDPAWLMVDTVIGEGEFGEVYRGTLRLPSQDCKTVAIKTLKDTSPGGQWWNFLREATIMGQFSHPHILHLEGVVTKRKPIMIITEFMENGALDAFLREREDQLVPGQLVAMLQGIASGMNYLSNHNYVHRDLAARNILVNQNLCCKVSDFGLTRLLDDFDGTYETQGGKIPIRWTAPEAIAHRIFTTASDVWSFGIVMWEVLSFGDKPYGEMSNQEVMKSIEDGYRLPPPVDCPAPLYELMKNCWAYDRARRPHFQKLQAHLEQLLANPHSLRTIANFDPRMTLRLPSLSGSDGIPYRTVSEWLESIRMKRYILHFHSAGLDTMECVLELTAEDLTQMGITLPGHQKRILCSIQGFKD

SYK = biological target: T3, SYK (Homo sapiens, UniProt P43405); assay: as above; type: biochemical; details: 1 µmol/L of BTK inhibitor
T3 construct: purchased Carna Biosciences

AKT1 = biological target: T4, AKT1 (Homo sapiens, UniProt P31749); assay: as above; type: biochemical; details: 1 µmol/L of BTK inhibitor
T4 construct: purchased Carna Biosciences

CHK1 = biological target: T5, CHK1 (Homo sapiens, UniProt O14757); assay: as above; type: biochemical; details: 1 µmol/L of BTK inhibitor
T5 construct: purchased Carna Biosciences
T5 sequence (O14757 1-476): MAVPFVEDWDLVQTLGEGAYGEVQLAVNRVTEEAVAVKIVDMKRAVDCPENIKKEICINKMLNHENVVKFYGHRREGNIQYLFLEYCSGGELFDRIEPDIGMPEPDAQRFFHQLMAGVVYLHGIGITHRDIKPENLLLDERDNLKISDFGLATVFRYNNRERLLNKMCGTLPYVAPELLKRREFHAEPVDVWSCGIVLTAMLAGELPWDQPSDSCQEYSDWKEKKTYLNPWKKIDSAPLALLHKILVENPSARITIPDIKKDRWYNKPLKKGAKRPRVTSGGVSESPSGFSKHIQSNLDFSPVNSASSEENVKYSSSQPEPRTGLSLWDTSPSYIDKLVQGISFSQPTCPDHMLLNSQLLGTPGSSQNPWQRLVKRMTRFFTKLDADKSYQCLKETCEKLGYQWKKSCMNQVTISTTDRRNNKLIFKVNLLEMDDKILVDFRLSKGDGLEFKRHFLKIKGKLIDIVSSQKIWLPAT

MAP4K2 = biological target: T6, MAP4K2 (Homo sapiens, UniProt Q12851); assay: as above; type: biochemical; details: 1 µmol/L of BTK inhibitor
T6 construct: purchased Carna Biosciences
T6 sequence (Q12851 1-820): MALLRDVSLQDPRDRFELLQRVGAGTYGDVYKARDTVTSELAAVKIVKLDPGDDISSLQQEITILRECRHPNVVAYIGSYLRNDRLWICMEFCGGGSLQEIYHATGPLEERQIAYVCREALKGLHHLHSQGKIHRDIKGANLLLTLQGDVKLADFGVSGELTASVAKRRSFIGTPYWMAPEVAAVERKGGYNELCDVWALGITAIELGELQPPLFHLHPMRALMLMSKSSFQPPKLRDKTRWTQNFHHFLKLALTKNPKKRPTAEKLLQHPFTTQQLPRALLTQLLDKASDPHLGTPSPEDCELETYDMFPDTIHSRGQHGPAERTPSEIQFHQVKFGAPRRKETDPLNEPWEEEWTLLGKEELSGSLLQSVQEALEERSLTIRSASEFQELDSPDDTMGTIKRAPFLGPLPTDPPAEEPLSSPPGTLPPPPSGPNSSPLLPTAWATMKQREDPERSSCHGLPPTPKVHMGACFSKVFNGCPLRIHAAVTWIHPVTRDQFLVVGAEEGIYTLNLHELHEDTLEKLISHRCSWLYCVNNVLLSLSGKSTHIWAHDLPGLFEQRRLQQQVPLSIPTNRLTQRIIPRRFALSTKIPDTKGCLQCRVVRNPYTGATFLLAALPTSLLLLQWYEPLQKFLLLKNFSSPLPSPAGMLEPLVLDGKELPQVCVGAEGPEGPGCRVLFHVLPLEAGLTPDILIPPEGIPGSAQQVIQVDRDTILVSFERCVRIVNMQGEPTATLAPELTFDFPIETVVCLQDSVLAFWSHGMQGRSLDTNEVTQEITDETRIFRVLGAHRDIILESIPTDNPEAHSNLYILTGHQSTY

TNIK = biological target: T7, TNIK (Homo sapiens, UniProt Q9UKE5); assay: as above; type: biochemical; details: 1 µmol/L of BTK inhibitor
T7 construct: purchased Carna Biosciences

[1] = biological target: biotinylated, inactive MEK1 (Homo sapiens, UniProt Q02750); assay: Surface plasmon resonance binding (Biacore 1S+); details: SPR
EGFR = EGFR (Homo sapiens, UniProt P00533); assay: Kinase panel profiling at 1 µmol/L (mobility shift assay, Carna); details: for Percentage inhibition of kinase enzyme activity: EGFR, 1 µmol/L of BTK inhibitor
SRC = biological target: T8, SRC (Homo sapiens, UniProt P12931); assay: as above; type: biochemical; details: 1 µmol/L of BTK inhibitor
T8 construct: purchased Carna Biosciences

YES = YES (Homo sapiens, UniProt P07947); assay: Kinase enzyme activity assay (mobility shift assay, Carna); details: 1 µmol/L of BTK inhibitor
Sequence of YES (P07947 whole entry): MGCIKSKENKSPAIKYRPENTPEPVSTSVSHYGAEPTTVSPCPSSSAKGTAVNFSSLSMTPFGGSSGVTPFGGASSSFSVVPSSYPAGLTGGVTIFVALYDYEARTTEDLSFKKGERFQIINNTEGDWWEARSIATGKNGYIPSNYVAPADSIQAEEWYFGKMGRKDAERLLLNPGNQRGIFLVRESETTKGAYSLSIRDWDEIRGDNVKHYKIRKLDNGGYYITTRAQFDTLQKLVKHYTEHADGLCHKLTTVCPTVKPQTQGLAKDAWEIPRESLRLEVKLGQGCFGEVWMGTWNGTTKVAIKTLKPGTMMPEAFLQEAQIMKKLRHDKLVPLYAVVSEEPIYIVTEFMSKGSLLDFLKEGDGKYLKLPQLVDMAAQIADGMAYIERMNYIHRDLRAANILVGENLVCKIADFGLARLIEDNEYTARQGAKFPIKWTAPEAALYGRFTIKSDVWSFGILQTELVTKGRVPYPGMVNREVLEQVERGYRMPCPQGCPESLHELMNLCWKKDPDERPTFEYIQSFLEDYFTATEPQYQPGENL

T4 sequence (P31749 whole entry): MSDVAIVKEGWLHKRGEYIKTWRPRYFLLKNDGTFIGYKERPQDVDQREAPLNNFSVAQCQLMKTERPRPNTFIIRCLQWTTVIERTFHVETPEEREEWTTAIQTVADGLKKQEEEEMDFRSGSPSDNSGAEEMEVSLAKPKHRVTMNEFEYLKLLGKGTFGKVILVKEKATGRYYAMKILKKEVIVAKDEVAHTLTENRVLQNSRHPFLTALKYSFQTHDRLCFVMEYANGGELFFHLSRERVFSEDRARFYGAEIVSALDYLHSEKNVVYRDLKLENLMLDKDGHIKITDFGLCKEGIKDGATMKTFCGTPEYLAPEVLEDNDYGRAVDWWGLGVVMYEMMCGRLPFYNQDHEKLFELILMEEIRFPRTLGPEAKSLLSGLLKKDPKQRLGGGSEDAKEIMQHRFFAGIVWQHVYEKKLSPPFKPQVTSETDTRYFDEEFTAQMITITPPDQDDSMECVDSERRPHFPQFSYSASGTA
T7 sequence (Q9UKE5 whole entry): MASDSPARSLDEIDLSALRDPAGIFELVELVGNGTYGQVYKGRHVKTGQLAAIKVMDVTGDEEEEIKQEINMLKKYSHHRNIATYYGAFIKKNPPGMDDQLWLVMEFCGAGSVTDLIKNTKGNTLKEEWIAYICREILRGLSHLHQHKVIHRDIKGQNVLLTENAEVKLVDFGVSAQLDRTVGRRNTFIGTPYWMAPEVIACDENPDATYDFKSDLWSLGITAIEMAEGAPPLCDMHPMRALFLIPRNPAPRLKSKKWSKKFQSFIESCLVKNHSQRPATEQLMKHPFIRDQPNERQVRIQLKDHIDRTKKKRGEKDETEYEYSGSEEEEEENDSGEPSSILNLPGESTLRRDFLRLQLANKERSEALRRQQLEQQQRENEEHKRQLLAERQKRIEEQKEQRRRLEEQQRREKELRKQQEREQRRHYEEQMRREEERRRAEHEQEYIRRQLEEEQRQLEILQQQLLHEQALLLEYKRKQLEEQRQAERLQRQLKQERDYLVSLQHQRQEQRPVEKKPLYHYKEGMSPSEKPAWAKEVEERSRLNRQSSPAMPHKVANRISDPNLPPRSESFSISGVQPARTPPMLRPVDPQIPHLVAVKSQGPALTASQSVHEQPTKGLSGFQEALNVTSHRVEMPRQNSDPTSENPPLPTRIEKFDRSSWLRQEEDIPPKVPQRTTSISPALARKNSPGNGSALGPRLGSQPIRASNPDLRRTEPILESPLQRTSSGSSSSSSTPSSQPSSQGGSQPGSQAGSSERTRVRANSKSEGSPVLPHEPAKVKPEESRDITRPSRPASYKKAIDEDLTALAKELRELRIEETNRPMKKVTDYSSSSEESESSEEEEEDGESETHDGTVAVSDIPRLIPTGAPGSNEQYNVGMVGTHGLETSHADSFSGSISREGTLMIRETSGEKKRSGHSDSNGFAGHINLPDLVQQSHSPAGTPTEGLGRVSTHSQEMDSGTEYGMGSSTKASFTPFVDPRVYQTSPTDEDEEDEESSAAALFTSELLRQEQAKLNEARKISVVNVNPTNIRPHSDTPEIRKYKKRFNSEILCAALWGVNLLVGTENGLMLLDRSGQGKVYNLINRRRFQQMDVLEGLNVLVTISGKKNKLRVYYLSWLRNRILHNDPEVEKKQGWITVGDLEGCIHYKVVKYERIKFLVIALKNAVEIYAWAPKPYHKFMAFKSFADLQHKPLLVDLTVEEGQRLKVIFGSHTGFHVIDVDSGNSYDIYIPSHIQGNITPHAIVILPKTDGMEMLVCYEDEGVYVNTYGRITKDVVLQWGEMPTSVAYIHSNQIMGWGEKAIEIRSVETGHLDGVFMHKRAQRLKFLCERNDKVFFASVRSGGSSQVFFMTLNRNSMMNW
Sequence of biotinylated, inactive MEK1 (Q02750 whole entry): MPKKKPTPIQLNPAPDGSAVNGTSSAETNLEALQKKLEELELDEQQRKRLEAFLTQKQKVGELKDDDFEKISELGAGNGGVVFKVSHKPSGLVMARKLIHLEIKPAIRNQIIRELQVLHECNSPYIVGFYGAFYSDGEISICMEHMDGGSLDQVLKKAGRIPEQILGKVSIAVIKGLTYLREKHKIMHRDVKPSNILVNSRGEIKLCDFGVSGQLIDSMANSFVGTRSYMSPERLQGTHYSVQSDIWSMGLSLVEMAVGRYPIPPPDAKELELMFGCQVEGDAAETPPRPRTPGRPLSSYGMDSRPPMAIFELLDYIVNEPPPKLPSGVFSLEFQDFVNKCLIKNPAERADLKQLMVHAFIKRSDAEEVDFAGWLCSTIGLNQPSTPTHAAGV
Sequence of EGFR (P00533 25-1210): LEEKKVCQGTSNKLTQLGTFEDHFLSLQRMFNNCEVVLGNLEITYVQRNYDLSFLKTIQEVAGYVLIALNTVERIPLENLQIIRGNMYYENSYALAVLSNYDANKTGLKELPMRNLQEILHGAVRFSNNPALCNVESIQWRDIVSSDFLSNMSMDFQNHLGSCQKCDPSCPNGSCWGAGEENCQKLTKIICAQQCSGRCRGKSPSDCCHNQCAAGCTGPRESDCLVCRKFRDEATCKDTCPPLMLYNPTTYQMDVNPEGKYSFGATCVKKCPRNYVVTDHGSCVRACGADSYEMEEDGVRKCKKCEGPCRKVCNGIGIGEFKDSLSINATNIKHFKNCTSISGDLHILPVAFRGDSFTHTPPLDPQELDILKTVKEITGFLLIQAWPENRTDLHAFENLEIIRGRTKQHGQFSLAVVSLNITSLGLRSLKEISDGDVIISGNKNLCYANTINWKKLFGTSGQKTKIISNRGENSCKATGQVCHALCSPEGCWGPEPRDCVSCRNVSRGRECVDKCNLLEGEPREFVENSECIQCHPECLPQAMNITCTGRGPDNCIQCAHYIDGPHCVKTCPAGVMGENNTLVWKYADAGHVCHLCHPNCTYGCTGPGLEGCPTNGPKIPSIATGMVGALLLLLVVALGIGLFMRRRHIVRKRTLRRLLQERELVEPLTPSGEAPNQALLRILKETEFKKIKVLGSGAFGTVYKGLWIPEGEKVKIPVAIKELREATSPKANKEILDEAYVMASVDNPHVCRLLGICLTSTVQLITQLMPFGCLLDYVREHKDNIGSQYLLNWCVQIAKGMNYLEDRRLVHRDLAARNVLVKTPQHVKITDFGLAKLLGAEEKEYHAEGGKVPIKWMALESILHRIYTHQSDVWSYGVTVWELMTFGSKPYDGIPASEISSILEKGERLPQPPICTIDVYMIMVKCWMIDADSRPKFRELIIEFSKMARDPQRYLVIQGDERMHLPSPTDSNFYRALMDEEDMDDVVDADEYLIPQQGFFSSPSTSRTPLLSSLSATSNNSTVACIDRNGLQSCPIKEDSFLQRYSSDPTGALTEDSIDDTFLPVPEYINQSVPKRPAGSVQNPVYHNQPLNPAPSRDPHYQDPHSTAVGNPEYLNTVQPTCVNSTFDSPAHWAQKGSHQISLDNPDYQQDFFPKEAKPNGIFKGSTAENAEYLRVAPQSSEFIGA
T1 sequence (P51813 whole entry): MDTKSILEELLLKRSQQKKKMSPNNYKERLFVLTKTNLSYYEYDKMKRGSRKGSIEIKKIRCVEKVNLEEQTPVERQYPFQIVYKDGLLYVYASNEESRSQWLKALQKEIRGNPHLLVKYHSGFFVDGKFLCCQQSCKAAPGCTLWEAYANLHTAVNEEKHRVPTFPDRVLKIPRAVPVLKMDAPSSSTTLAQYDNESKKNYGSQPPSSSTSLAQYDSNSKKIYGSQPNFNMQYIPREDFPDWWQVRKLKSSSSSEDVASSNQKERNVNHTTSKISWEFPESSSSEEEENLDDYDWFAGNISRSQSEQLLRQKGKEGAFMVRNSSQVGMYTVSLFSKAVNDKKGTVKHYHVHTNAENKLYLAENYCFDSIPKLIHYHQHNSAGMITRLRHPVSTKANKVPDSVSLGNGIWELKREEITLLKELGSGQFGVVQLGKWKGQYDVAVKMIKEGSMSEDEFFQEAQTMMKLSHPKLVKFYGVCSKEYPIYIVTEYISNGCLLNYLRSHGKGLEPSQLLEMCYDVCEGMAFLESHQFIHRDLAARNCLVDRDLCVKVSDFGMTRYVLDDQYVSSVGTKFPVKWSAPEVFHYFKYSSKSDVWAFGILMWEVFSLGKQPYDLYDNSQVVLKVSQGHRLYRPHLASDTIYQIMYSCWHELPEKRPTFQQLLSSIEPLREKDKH

Row | Structure (SMILES) | Percentage inhibition of kinase enzyme activity (BMX) | Percentage inhibition of kinase enzyme activity (EPHA1) | Percentage inhibition of kinase enzyme activity (SYK) | Percentage inhibition of kinase enzyme activity (AKT1) | Percentage inhibition of kinase enzyme activity (CHK1) | Percentage inhibition of kinase enzyme activity (MAP4K2) | Percentage inhibition of kinase enzyme activity (TNIK) | log (kd) [1] | log(ka) [1] | t1/2 [1] | Percentage inhibition of kinase enzyme activity (EGFR) | Percentage inhibition of kinase enzyme activity (SRC) | Percentage inhibition of kinase enzyme activity (YES) | inhibition at 1 µM (EGFR; read-out: Inhibition of EGFR)
1 | O=C(c1ccc(Oc2ccccc2)cc1Cl)c1c[nH]c2ncnc(N[C@@H]3CC[C@@H](CO)OC3)c12 [nemtabrutinib] | 100.05% | 58.54% | 3.99% | -8.43% | 12.30% | 78.03% | 85.96% | -3.49 | 4.50 | 35.67 min | 99.77% | – | – | –
2 | CC#CC(=O)N1CCC[C@H]1c1nc(-c2ccc(C(=O)Nc3ccccn3)cc2)c2c(N)nccn12 [acalabrutinib] | – | -0.59% | -19.36% | -6.23% | -6.98% | -11.21% | -0.81% | – | – | – | 19.39% | 10.46% | 21.84% | –
3 | COc1ccc(F)cc1C(=O)NCc1ccc(-c2nn([C@@H](C)C(F)(F)F)c(N)c2C(N)=O)cc1 [pirtobrutinib] | 29.35% | -1.27% | -13.08% | -12.80% | 8.67% | 3.56% | -3.38% | – | – | – | 85.26% | 4.75% | 72.60% | > 75%
4 | C=CC(=O)N1CCC([C@@H]2CCNc3c(C(N)=O)c(-c4ccc(Oc5ccccc5)cc4)nn32)CC1 [zanubrutinib] | – | -1.86% | – | – | – | – | – | – | – | – | – | – | – | –
5 | C=CC(=O)N1CCC[C@@H](n2nc(-c3ccc(Oc4ccccc4)cc3)c3c(N)ncnc32)C1 [ibrutinib] | – | 49.82% | -19.83% | -9.41% | 10.13% | -4.43% | -1.62% | – | – | – | – | – | – | –
